A short description of the test: DSC denaturation peak temperature of treated dark brown hair. Also noted: species or system Human. Conditions: Example 4, 5 treatments, pH 5, 32° C. Here is the method: DSC measures the denaturation temperature of the α-helical proteins in the microfibrils of the hair fibre. This temperature is influenced by the cross-link density of the surrounding matrix proteins (Wortmann et al., J. Cosmet. Sci., 53, 219-228 (2002)). A higher denaturation peak temperature indicates greater integrity of the fibre. Damage repair was assessed using DSC. A Mettler Toledo DSC1 analyser was used. The hair was shaved, using clippers, into 1-2 mm lengths. Approximately 5 mg of sample was weighed into a pressure resistant (20 bar), stainless steel, large volume pan (120 μL capacity). 50 μL of water was added and the pan was sealed. The samples were then mixed using a rotary mixer and left overnight to allow the water to equilibrate throughout the sample. […] The helix transition temperature was measured. Each sample was measured three times. Selected 2'' hair switches were bleached once using […] […] 4200 μL Britton-Robinson buffer (62.5 mM pH 5; final concentration 50 mM) 600 μl hydrogen peroxide 3% (SBP- or HRP-treated sample and (+)-catechin/H2O2 treated sample) or 600 μL milliQ water (laccase-treated sample and (+)-catechin treated sample) 600 μL (+)-catechin, 100 mg/mL stock in DMSO The reagents listed above were combined in 15 mL Falcon centrifuge tubes. […] Samples were measured three times.

For `Oc1cc(O)c2c(c1)O[C@H](c1ccc(O)c(O)c1)[C@@H](O)C2` [(+)-Catechin, (+)-catechin], the Denaturation peak temperature is 153.38 +/− 0.43 °C (dark brown hair bleached x1) and 151.16 +/− 0.49 °C (unbleached dark brown hair).

The values are drawn from US20140335038A1, “METHOD OF STRENGTHENING HAIR FIBRES” (priority 2011, published 2014).
